{"source": "patent US8334403B1", "about": "“C-lysine conjugates as pH-controlled, light-activated reagents for double stranded DNA cleavage and associated methods” (Florida State University Research Foundation, Inc., priority 2005, dated 2012)", "key": {"[1]": {"assay": "Fluorometric (emission) determination of pKa", "format": "physicochemical", "description": "(§1) General information. ^1H, ^13C and ^19F NMR were collected on a Varian Gemini 300 MHz NMR spectrometer and a Bruker 300 MHz NMR spectrometer. Mass spectrometry data was collected on a Jeol JMS-600H. UV spectra were recorded on a Shimadzu UV-2100. Fluorescence spectra were obtained with SPEX FluoMax spectrofluorimeter using right-angle geometry. pH was adjusted with AB 15 plus pH meter (Accument) after standardization at 25° C. All buffers were prepared and pH-adjusted at room temperature (25° C.). Plasmid DNA Photocleavage. pBR322 plasmid DNA (4,361 b/p; from BioLabs Inc., 1 μg/μL solution in 10 mM Tris-HCl (pH 8.0), and 1 mM EDTA buffer) was diluted to a concentration of 0.01 μg/μL. The solution containing cleavage agent, DNA (30 μM/bp) in 20 mM sodium phosphate buffer was incubated for 1 hour at 30° C. Samples were placed on ice at a distance of 20 cm from 200 W Hg—Xe lamp (Spectra-Physics, Laser & Photonics Oriel Instruments with long pass filter with 324 nm cut-off wavelength). Electrophoretic Analysis. The gel electrophoresis was carried out in 1×TBE buffer at 80 V using Miligel FisherBiotech Horizontal Electrophoresis System. All gels were run on 1% agarose slab gels. Before loading, the DNA samples were mixed with 0.33 volume of tracking dye containing bromophenol blue (0.25%) and glycerol (30%) in water. After staining in ethidium bromide solution (2 μg/ml) for 1 hour, the gel was washed with water and pictures were taken with Polaroid 3000ISO type 667 film. The relative quantities of the supercoiled, nicked, and linear DNA were calculated by integrating the “area” of each spot by the image analyzer software Total/Lab (Nonlinear Dynamics Ltd., UK). The amount of supercoiled DNA was multiplied by factor of 1.4 to account for reduced ethidium bromide intercalation into supercoiled DNA. pH titration by ^1H-NMR. pH* of compound 8 (3 mM) solution in D2O containing 0.05 wt % 3-(trimethylsilyl)propionic-2,2,3,3-d4 acid, sodium salt (TSP-d4) was adjusted with 10 wt % DCI and NaOD in D2O at 25° C. under argon purged condition. Spectrometric determinations of pKa. pH of 10 μM of compound solution in H2O was adjusted with 10, 100 mM HCl (aq) and NaOH (aq) solution under argon purged condition. Excitation wavelength was 330 nm and polymethacrylate fluorimeter cuvettes were used. Absorbance and fluorescence titration with DNA. The concentrations of calf thymus DNA stock solution was determined spectophotometrically using the following molar absorptovity values: 1.32×10^4 M^−1 cm^−1 (per base pair) at 260 nm. All experiments were done in 20 mM sodium phosphate buffer at 25° C. and polymethacrylate fluorimeter cuvettes were used. The same amount of DNA was added to both sample and reference cuvettes during UV/Vis titration. Determination of excited state lifetimes. The concentration of compound solution was 10 μM in 20 mM sodium phosphate buffer. The photoluminescence lifetime measurements were conducted by exciting the samples with the output of a Nd:VO—4 (Spectra-Physics Vanguard, 2 W, 532 nm, 76 MHz, 10 ps) pumped R6G dye laser (Coherent 702-1). The output of the dye laser (600 nm, Rhodamine 6G) was cavity dumped at 1.9 MHz and frequency doubled using a BBO crystal to excite the fluorophore (the excitation wavelength used was 290 nm). Samples were excited with <1 mW power and the emission was collected at right angles onto a Chromex S3 500 is 0.5 m imaging monochromator with a 50 g/mm grating and 0.5 nm resolution. […]"}, "[2]": {"system": "calf thymus (CT) DNA", "assay": "UV-Vis absorbance titration with DNA", "format": "binding", "details": "20 mM phosphate buffer", "description": "General information. ^1H, ^13C and ^19F NMR were collected on a Varian Gemini 300 MHz NMR spectrometer and a Bruker 300 MHz NMR spectrometer. Mass spectrometry data was collected on a Jeol JMS-600H. UV spectra were recorded on a Shimadzu UV-2100. Fluorescence spectra were obtained with SPEX FluoMax spectrofluorimeter using right-angle geometry. pH was adjusted with AB 15 plus pH meter (Accument) after standardization at 25° C. All buffers were prepared and pH-adjusted at room temperature (25° C.). Plasmid DNA Photocleavage. pBR322 plasmid DNA (4,361 b/p; from BioLabs Inc., 1 μg/μL solution in 10 mM Tris-HCl (pH 8.0), and 1 mM EDTA buffer) was diluted to a concentration of 0.01 μg/μL. The solution containing cleavage agent, DNA (30 μM/bp) in 20 mM sodium phosphate buffer was incubated for 1 hour at 30° C. Samples were placed on ice at a distance of 20 cm from 200 W Hg—Xe lamp (Spectra-Physics, Laser & Photonics Oriel Instruments with long pass filter with 324 nm cut-off wavelength). Electrophoretic Analysis. The gel electrophoresis was carried out in 1×TBE buffer at 80 V using Miligel FisherBiotech Horizontal Electrophoresis System. All gels were run on 1% agarose slab gels. Before loading, the DNA samples were mixed with 0.33 volume of tracking dye containing bromophenol blue (0.25%) and glycerol (30%) in water. After staining in ethidium bromide solution (2 μg/ml) for 1 hour, the gel was washed with water and pictures were taken with Polaroid 3000ISO type 667 film. The relative quantities of the supercoiled, nicked, and linear DNA were calculated by integrating the “area” of each spot by the image analyzer software Total/Lab (Nonlinear Dynamics Ltd., UK). […] Absorbance and fluorescence titration with DNA. The concentrations of calf thymus DNA stock solution was determined spectophotometrically using the following molar absorptovity values: 1.32×10^4 M^−1 cm^−1 (per base pair) at 260 nm. […]"}, "[3]": {"assay": "Solubility / aggregation in water", "format": "physicochemical", "details": "higher pH values (~8)", "excerpt": "The decrease in solubility leads to the apparent aggregation and distortion of potentiometric curves at the higher pH. This distortion prevents accurate curve fitting (see FIG. 25). Thus, we had to resort to alternative spectral methods. Fortunately, there is a selection of convenient procedures which provide complementary information which can be used for cross-checking the accuracy of the alternative approaches."}, "[4]": {"system": "UMRC6 cells", "assay": "RCC cell proliferation assay, UMRC6", "format": "cell-based", "details": "Homo sapiens, UMRC6, UV 350 nm 10 minutes, 72 hours", "description": "(§2) FIG. 23 provides the results of cell proliferation assays using three different RCC cell lines: (a) UMRC3, (b) UMRC6 and (c) 786-O, and compounds I-5; RCC cells were resuspended in media and treated with UV radiation (350 nm) for 10 minutes with and without indicated compounds; control cells were exposed to the indicated compound 1-5 at final concentration of 10 μM; cell numbers determined after 72 hours as described in the SI Section;\n(§3) The ability of compounds 1-5 to inhibit cell proliferation in three human clear cell renal cell carcinoma (RCC) cell lines was tested in the dark and under photoactivation (FIG. 23). No difference was detected in the control experiments between cells not exposed to UV versus those that were exposed to UV at 350 nm for 10 minutes in any of the three RCC cell lines tested (FIG. 23 A, B & C; first two columns)."}, "[5]": {"system": "UMRC3 cells", "assay": "RCC cell proliferation assay, UMRC3", "format": "cell-based", "details": "Homo sapiens, UMRC3, UV 350 nm 10 minutes, 72 hours", "description": "as §2, §3"}, "[6]": {"assay": "UV-absorption titration determination of pKa", "format": "physicochemical", "details": "absorption", "description": "as §1"}, "[7]": {"system": "calf thymus (CT) DNA", "assay": "Fluorescence (emission) titration with DNA", "format": "binding", "details": "10 μM, 20 mM phosphate buffer", "description": "General information. ^1H, ^13C and ^19F NMR were collected on a Varian Gemini 300 MHz NMR spectrometer and a Bruker 300 MHz NMR spectrometer. Mass spectrometry data was collected on a Jeol JMS-600H. UV spectra were recorded on a Shimadzu UV-2100. Fluorescence spectra were obtained with SPEX FluoMax spectrofluorimeter using right-angle geometry. pH was adjusted with AB 15 plus pH meter (Accument) after standardization at 25° C. All buffers were prepared and pH-adjusted at room temperature (25° C.). Plasmid DNA Photocleavage. pBR322 plasmid DNA (4,361 b/p; from BioLabs Inc., 1 μg/μL solution in 10 mM Tris-HCl (pH 8.0), and 1 mM EDTA buffer) was diluted to a concentration of 0.01 μg/μL. The solution containing cleavage agent, DNA (30 μM/bp) in 20 mM sodium phosphate buffer was incubated for 1 hour at 30° C. […] The relative quantities of the supercoiled, nicked, and linear DNA were calculated by integrating the “area” of each spot by the image analyzer software Total/Lab (Nonlinear Dynamics Ltd., UK). […] Absorbance and fluorescence titration with DNA. The concentrations of calf thymus DNA stock solution was determined spectophotometrically using the following molar absorptovity values: 1.32×10^4 M^−1 cm^−1 (per base pair) at 260 nm. […]"}, "[8]": {"system": "pBR322 plasmid DNA", "assay": "Plasmid relaxation assay: DNA photocleavage of supercoiled plasmid under UV irradiation", "format": "biochemical", "details": "higher concentrations of 4", "description": "General information. ^1H, ^13C and ^19F NMR were collected on a Varian Gemini 300 MHz NMR spectrometer and a Bruker 300 MHz NMR spectrometer. Mass spectrometry data was collected on a Jeol JMS-600H. UV spectra were recorded on a Shimadzu UV-2100. Fluorescence spectra were obtained with SPEX FluoMax spectrofluorimeter using right-angle geometry. pH was adjusted with AB 15 plus pH meter (Accument) after standardization at 25° C. All buffers were prepared and pH-adjusted at room temperature (25° C.). Plasmid DNA Photocleavage. pBR322 plasmid DNA (4,361 b/p; from BioLabs Inc., 1 μg/μL solution in 10 mM Tris-HCl (pH 8.0), and 1 mM EDTA buffer) was diluted to a concentration of 0.01 μg/μL. The solution containing cleavage agent, DNA (30 μM/bp) in 20 mM sodium phosphate buffer was incubated for 1 hour at 30° C. Samples were placed on ice at a distance of 20 cm from 200 W Hg—Xe lamp (Spectra-Physics, Laser & Photonics Oriel Instruments with long pass filter with 324 nm cut-off wavelength). Electrophoretic Analysis. The gel electrophoresis was carried out in 1×TBE buffer at 80 V using Miligel FisherBiotech Horizontal Electrophoresis System. All gels were run on 1% agarose slab gels. Before loading, the DNA samples were mixed with 0.33 volume of tracking dye containing bromophenol blue (0.25%) and glycerol (30%) in water. After staining in ethidium bromide solution (2 μg/ml) for 1 hour, the gel was washed with water and pictures were taken with Polaroid 3000ISO type 667 film. The relative quantities of the supercoiled, nicked, and linear DNA were calculated by integrating the “area” of each spot by the image analyzer software Total/Lab (Nonlinear Dynamics Ltd., UK). The amount of supercoiled DNA was multiplied by factor of 1.4 to account for reduced ethidium bromide intercalation into supercoiled DNA. pH titration by ^1H-NMR. pH* of compound 8 (3 mM) solution in D2O containing 0.05 wt % 3-(trimethylsilyl)propionic-2,2,3,3-d4 acid, sodium salt (TSP-d4) was adjusted with 10 wt % DCI and NaOD in D2O at 25° C. under argon purged condition. Spectrometric determinations of pKa. pH of 10 μM of compound solution in H2O was adjusted with 10, 100 mM HCl (aq) and NaOH (aq) solution under argon purged condition. Excitation wavelength was 330 nm and polymethacrylate fluorimeter cuvettes were used. Absorbance and fluorescence titration with DNA. The concentrations of calf thymus DNA stock solution was determined spectophotometrically using the following molar absorptovity values: 1.32×10^4 M^−1 cm^−1 (per base pair) at 260 nm. All experiments were done in 20 mM sodium phosphate buffer at 25° C. and polymethacrylate fluorimeter cuvettes were used. The same amount of DNA was added to both sample and reference cuvettes during UV/Vis titration. Determination of excited state lifetimes. The concentration of compound solution was 10 μM in 20 mM sodium phosphate buffer. The photoluminescence lifetime measurements were conducted by exciting the samples with the output of a Nd:VO—4 (Spectra-Physics Vanguard, 2 W, 532 nm, 76 MHz, 10 ps) pumped R6G dye laser (Coherent 702-1). The output of the dye laser (600 nm, Rhodamine 6G) was cavity dumped at 1.9 MHz and frequency doubled using a BBO crystal to excite the fluorophore (the excitation wavelength used was 290 nm). Samples were excited with <1 mW power and the emission was collected at right angles onto a Chromex S3 500 is 0.5 m imaging monochromator with a 50 g/mm grating and 0.5 nm resolution. Output of the monochromator is focused into a Hamamatsu C5680 streak camera operating at a 20 ns window for the fluorophore. Intensity analysis was carried out by integrating the spectral profile in time on the streak camera. Lifetime analysis over 6-7 lifetimes of the fluorophore was conducted by binning the photoluminescence intensity collected on the streak camera over a 20 nm spectral window at the centroid value of the emission of the fluorophore. Ethidium bromide displacement. […]"}}, "note": "Values joined by “and” are separate entries in the source; they are usually repeats but may differ in a detail not shown here. Equal entries are not always repeated."}
{"smiles": "Cl.Cl.NCCCC[C@H](N)C(=O)Nc1ccc(C#Cc2c(F)c(F)nc(F)c2F)cc1", "note": "[Compound 4, (S)-2,6-Diamino-hexanoic acid [4-(2,3,5,6-tetrafluoro-pyridin-4-ylethynyl)-phenyl]-amide dihydrochloride]", "values": [{"measurement": "α-pKa lower than the pKa for alanine conjugate 6", "setting": "[1]; difference to compound 6", "result": "~0.5", "unit": "units"}, {"measurement": "decrease in the basicity of the α-amino group relative to phenyl conjugate 8", "setting": "[1]; difference to compound 8", "result": "0.5-0.6 pKa units"}, {"measurement": "pKa1", "setting": "[1]; emission, α-amino group (4, 6), ε-amino group (7), dihydrochloride", "result": "7.0 and 6.98"}, {"measurement": "hypochromicity on titration with DNA", "setting": "[2]; pH 5.5, 10 μM", "result": 20, "unit": "%"}, {"measurement": "hypochromicity on titration with DNA", "setting": "[2]; pH 7, 10 μM", "result": 14, "unit": "%"}, {"measurement": "hypochromicity on titration with DNA", "setting": "[2]; pH 8, 10 μM", "result": 12, "unit": "%"}, {"measurement": "aggregation and precipitation", "setting": "[3]", "result": "does not aggregate and precipitate"}, {"measurement": "mortality at 10 µM", "setting": "[4]", "result": 90, "unit": "%"}, {"measurement": "mortality at 10 µM", "setting": "[5]", "result": 94, "unit": "%"}, {"measurement": "pKa1", "setting": "[6]; α-amino group (4, 6), ε-amino group (7)", "result": 6.9}, {"measurement": "pKa2", "setting": "[6]; ε-amino group", "result": "-/9.5"}, {"measurement": "change in fluorescence upon DNA titration", "setting": "[7]", "result": "increase in fluorescence"}, {"measurement": "ds cleavage", "setting": "[8]", "result": "≤ 50", "unit": "%"}]}
